Results on twelve compounds are retold here after PubChem BioAssay (NCI).

Holding throughout (test): NCI-60 cell line screen, 48 h
Assay [1] relates to HOP-92 NSCLC.
Assay [2] concerns T-47D breast.
Assay [3] relates to NCI-H522 lung.
Assay [4] has as its system NCI-H23 lung.
Assay [5] deals with A549 NSCLC.
The test system of assay [6] is RXF 393 renal.
Assay [7] has as its system SW-620 colon.
Assay [8] has as its system SR leukemia.

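A five-concentration, 48-hour dose response in 96-well plates underlies each endpoint, interpolated linearly between surrounding concentrations. GI50: concentration for 50% inhibition of growth. TGI: total growth inhibition.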 Where only a bound is given, the exact number is not on record here.

In the case of `CN(C)C=NC1CCC(C(C)(C)C)CC1` (centres undefined), the TGI in assay [1] was 34.6 µM; in assay [2], 37.5 µM; in assay [3] it was 31.8 µM; in assay [4] it was 34.3 µM; in assay [5], 38.9 µM; in assay [6] it was 45.6 µM. The TGI in assay [7] turned out to be 34.4 µM.

For the compound `Cc1ccc(-c2nc3cc(Cl)c(Cl)cc3nc2C#N)cc1`, the GI50 in assay [1] was 40.5 µM; in assay [2], greater than 100 µM; in assay [3] it was greater than 100 µM; in assay [4], greater than 100 µM; in assay [5] it was greater than 100 µM; in assay [6], greater than 100 µM. For the same compound, the GI50 in assay [7] is greater than 100 µM. Also, the TGI in assay [1], in assay [2], in assay [3], in assay [4], in assay [5] and in assay [6] was greater than 100 µM in each case. In assay [7], the TGI was greater than 100 µM.

For the compound `COc1ccccc1/C=C/C1=C(C)CCC(c2ccccc2OC)C1C` (centres undefined), the GI50 is 0.632 µM in assay [1]; 4.36 µM in assay [2]; 0.113 µM in assay [3]; 0.188 µM in assay [4]; 0.223 µM in assay [5]; 0.11 µM in assay [6]. Also, the GI50 in assay [7] is 0.138 µM. The TGI is greater than 100 µM in assay [1], greater than 100 µM in assay [2], 13.6 µM in assay [4] and greater than 100 µM in assay [7].

Turning to `COC1=C(OC)C(=O)C(Sc2ccc3ccccc3c2)=CC1=O`, the TGI is 45.6 µM in assay [1]; 35.8 µM in assay [2]; 33.1 µM in assay [4]; 32.3 µM in assay [5]; 22.1 µM in assay [6]; 7.95 µM in assay [8]. Moreover, in assay [7], the TGI was greater than 61 µM.

As for `O=C(O)c1c(Cl)c(Cl)c(Cl)c(Cl)c1C(=O)Nc1ccc2cn[nH]c2c1`, the TGI in assay [1], in assay [2], in assay [3], in assay [4], in assay [5] and in assay [6] was greater than 100 µM in each case. The TGI in assay [7] was greater than 100 µM.

For `CCCCCCCCCCCCCCCCCCOc1ccccc1CC(=O)OCC[N+](CC)(CC)CC`, the GI50 was 1.1 µM in assay [1]; 1.48 µM in assay [2]; 1.53 µM in assay [3]; 1.16 µM in assay [4]; 1.44 µM in assay [5]; 0.924 µM in assay [6]. In addition, the GI50 in assay [7] is 1.82 µM. Also, the TGI in assay [1] was 3.52 µM; in assay [2], 8.16 µM; in assay [3], 6.84 µM; in assay [4] it was 4.09 µM; in assay [5] it was 7.42 µM; in assay [6], 2.06 µM. In addition, the TGI in assay [7] came out at 7.33 µM.

For the compound `O=Cc1c(-c2ccccc2)[nH]c2ccccc2c1=O`, the TGI is greater than 100 µM in assay [1]; greater than 100 µM in assay [2]; greater than 100 µM in assay [3]; greater than 100 µM in assay [4]; greater than 100 µM in assay [5]; 37.4 µM in assay [8]. In assay [7], this compound came in with a TGI greater than 100 µM.

For the compound `N#Cc1ccccc1C#C/C=C\C#CC#C/C=C\C#Cc1ccccc1C#N`, the GI50 in assay [1] was 10.4 µM; in assay [2], 10.3 µM; in assay [3], 3.15 µM; in assay [4] it was 3.14 µM; in assay [5], 11 µM; in assay [6] it was 15 µM. For the same compound, the GI50 in assay [7] is 9.1 µM. For the same compound, the TGI was greater than 100 µM in assay [1]; 46.5 µM in assay [2]; 14.9 µM in assay [3]; 19.7 µM in assay [4]; greater than 100 µM in assay [5]; 68.2 µM in assay [6]. Further, the TGI in assay [7] is greater than 100 µM.

Regarding `CCN(CC)c1ccc2nc3c4ccccc4c(=O)cc-3n(-c3ccccc3)c2c1`, the GI50 in assay [1] was 1.24 µM; in assay [2], 0.194 µM; in assay [4], 2.18 µM; in assay [5], 1.45 µM; in assay [6], 1.94 µM; in assay [7] it was 2.89 µM. Further, the TGI amounted to 4.78 µM in assay [1]; 0.87 µM in assay [2]; 9.09 µM in assay [4]; 3.96 µM in assay [5]; 5.83 µM in assay [6]; 13.6 µM in assay [7].

Regarding `c1ccc(-c2n(Cc3ccc4ccccc4c3)cc[n+]2Cc2ccc3ccccc3c2)cc1`, the GI50 was 0.775 µM in assay [4], 1.12 µM in assay [6], 0.972 µM in assay [8] and 1.08 µM in assay [7]. The TGI in assay [4] turned out to be 2.35 µM; in assay [6] it was 2.44 µM; in assay [8] it was 3.4 µM; in assay [7], 2.48 µM.

Take `CCCCCC[C@@H](C)Nc1nc2ccccc2c2occc12`: the GI50 in assay [1] was 11.2 µM; in assay [2] it was 7.24 µM; in assay [3], 1.83 µM; in assay [4], 1 µM; in assay [5], 19.4 µM; in assay [6] it was 13.9 µM. Also, the GI50 in assay [7] is 11.2 µM. Further, the TGI in assay [1] turned out to be 27.2 µM; in assay [2] it was 23.2 µM; in assay [3], 13.3 µM; in assay [4] it was 6.97 µM; in assay [5] it was 78.2 µM; in assay [6], 34.4 µM. In addition, the TGI in assay [7] worked out at 26.5 µM.

With `Cc1c(-c2ccc(O)cc2)oc(=O)c2ccc(O)cc12`, the GI50 in assay [1] is greater than 100 µM; in assay [2], greater than 100 µM; in assay [3], 87.6 µM; in assay [5], 47.6 µM; in assay [6] it was greater than 100 µM; in assay [8], 41.6 µM. Besides, the GI50 in assay [7] was 55.4 µM. Further, the TGI in assay [1], in assay [2], in assay [3], in assay [5], in assay [6] and in assay [8] was greater than 100 µM in each case. The TGI in assay [7] was greater than 100 µM.
